The source of these data is paper PMC3285689, “Structure Based Design and Synthesis of Peptide Inhibitor of Human LOX-12: In Vitro and In Vivo Analysis of a Novel Therapeutic Agent for Breast Cancer” (PLoS ONE, 2012).

Data set [1] addresses T1, LOX-12 (Homo sapiens, UniProt P18054).
T1 construct: made in house; host or cells: E. coli BL21 codon+ (pET28a)
T1 sequence (P18054 1-663): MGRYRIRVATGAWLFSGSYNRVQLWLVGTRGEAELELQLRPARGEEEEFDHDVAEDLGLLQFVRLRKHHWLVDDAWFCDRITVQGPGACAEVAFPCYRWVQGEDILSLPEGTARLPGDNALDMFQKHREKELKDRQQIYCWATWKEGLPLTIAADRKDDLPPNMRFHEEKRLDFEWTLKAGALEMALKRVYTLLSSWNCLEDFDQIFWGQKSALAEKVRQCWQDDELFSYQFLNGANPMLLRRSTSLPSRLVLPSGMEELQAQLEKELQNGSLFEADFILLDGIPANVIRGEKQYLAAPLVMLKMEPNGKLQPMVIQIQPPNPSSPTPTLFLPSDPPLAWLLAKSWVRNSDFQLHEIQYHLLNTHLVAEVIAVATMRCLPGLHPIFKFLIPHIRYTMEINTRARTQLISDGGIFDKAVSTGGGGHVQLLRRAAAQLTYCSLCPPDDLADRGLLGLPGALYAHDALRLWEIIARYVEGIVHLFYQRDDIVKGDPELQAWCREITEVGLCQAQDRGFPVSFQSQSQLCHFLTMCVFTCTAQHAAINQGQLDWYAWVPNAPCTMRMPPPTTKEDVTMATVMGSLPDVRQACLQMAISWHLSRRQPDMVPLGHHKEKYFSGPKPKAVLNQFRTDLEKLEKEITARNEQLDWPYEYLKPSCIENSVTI
Description: Inhibition of human LOX-12 activity, spectrophotometric screen. The note with it: LOX-12 incubated with peptide 30 min; arachidonic acid, 0.2% Tween-20, 50 mM potassium phosphate pH 7.2; absorbance 269 nm; average of triplicates; inhibitor concentration not given. The class given is biochemical. As to the method: For inhibition study, the human LOX-12 was incubated with peptide for 30 min, which was then added to the reaction buffer containing arachidonic acid (substrate), 0.2% Tween-20, 50 mM potassium phosphate buffer pH 7.2. The change in absorbance was monitored at 269 nm and the percentage of inhibition was calculated. A control reaction was always carried out without any peptide inhibitor to ensure the activity of protein under experimental conditions.
The activity assay for LOX-12 in presence of 10 different peptides with substrate was performed by using spectrophotometer. The assay was performed at 269 nm which gives the absorption maxima for the product LTB4.

The target of data set [2] is T1, LOX-12. Description: Kinetic assay of LOX-12 inhibition (Michaelis-Menten, competitive Ki). The class given is biochemical. As to the method:
For kinetic assay, the above experiment was done with four different concentrations of peptides (25–100 µM). For each concentration of peptide the experiment was repeated with six different concentrations (20–120 µM) of substrate, arachidonic acid. The enzyme concentration was constant (1.0 µM) throughout the assay. The competitive kinetic constant (Ki) was calculated graphically using the Michaelis-Menton equation in graphpad prism software. The graph of activity vs. concentration of arachidonic acid was plotted.
Competitive kinetic constant of the best peptide YWCS was calculated using graphpad prism software.

Data set [3] concerns the target T1, LOX-12. Description: SPR binding of peptides to immobilized His-LOX-12 (BIAcore 2000). The settings on record: His-LOX-12 on Ni2+-NTA chip, analyte 25, 50, 75 µM, flow 10 µl/min, BIA evaluation 3.0, read-out: Dissociation constant KD. Background: In SPR one partner is held on a chip, and binding of the other changes the refractive index at the surface.
Another data set relates to human red blood cells. Briefly: Hemolysis of human red blood cells. The settings on record: concentration upto 358 µM; hRBC 1% (v/v) in PBS pH 7.0, 1 h at 37°C, absorbance 541 nm, triplicate. The class given is cell-based. As to the method:
The effect of peptide on hemolysis was determined by using human red blood cells (hRBC from volunteer). The freshly collected hRBC were centrifuged for 10 mins to remove the buffy coat and washed with phosphate buffered saline (PBS: 35 mM Na2HPO4, pH 7.0 and 150 mM NaCl). 100 µl of the hRBC (suspended in 1% (v/v) in PBS) and 10 µl peptide solution were added into the sterile 96 well plates in triplicate. The plates were incubated for 1 h at 37°C and centrifuged at 1000× g for 5 mins. The supernatant were transferred to fresh 96 well plates, where hemoglobin released was monitored by measuring the absorbance spectrophotometrically at 541 nm. Similar steps were carried out for Gentamycin, as a control. The percentage of hemolysis (determined in PBS and 0.1% Triton X-100) was calculated from the standard graph which was plotted with % hemolysis of prepared RBCs vs optical densities.
The haemolytic activity of the peptide was determined to ensure the toxicity to erythrocytes using human RBCs. The concentration upto 358 µM of the peptide lysed only 22% human erythrocytes ( Figure 2 ).

The test system of a further data set is MCF-7 cells. Description: Annexin-V binding apoptosis assay by flow cytometry, MCF-7. The class given is cell-based, human. The note with it: 72 h, annexin-V/PI flow cytometry. As to the method:
The frequency of apoptosis in MCF7 cells and MDA-MB-231 by the treatment with YWCS was assayed by annexin-V binding assay. Briefly, MCF7 cells and MDA-MB-231 were pulsed with the peptide for 72 h. After termination of the culture, cells were stained with annexin-V apoptosis detection kit (Biolegend) according to the manufacturer's instructions. The cells were washed twice with PBS, and resuspended in annexin-V binding buffer. To the cell suspension, 5 µl of FITC-conjugated annexin-V (Biolegend) and 10 µl of propidium iodide (PI) (50 µg/ml) solution were added and further incubated for 15 min at room temperature. About 10,000 events were acquired in FACS Canto flow cytometer (Becton–Dickinson, USA). The frequency of annexin-positive (apoptotic) cells was determined using BD FACSDiva software.
The apoptotic activity of the peptide YWCS was performed using annexin-V binding assay. Apoptosis induction was observed as early as 72 h.
For orientation: In flow cytometry, cells or beads pass a laser one at a time.

For a further data set, the system named is MDA-MB-231 cells. Description: Annexin-V binding apoptosis assay by flow cytometry, MDA-MB-231. The note with it: 72 h, annexin-V/PI flow cytometry. The class given is cell-based, human.
Data set [4] has as its system Ehrlich's Ascites Tumor cell line (EAT) (murine breast carcinoma). Description: Antitumor activity in Swiss albino mice implanted with EAT tumor cell line. The class given is in vivo. As to the method: In-vivo animal experimentation of peptide for anticancer activity was done using mice model. Swiss albino mice were obtained from Central animal facility, AIIMS at 55–65 days of age. The animals were housed in polycarbonated cages, bedded with husk. The animal facility was environmentally controlled; mice were maintained at normal room temperature with suitable relative humidity and 12 h light, 12 h dark cycle. Animals were fed chow food and purified water ad libitum throughout the study. Animals were randomized into 5mice per cage in 3 groups (Group I, II and III) for the study.
Ehrlich's Ascites Tumor cell line (EAT) (murine breast carcinoma), was used for tumor induction. The cell line was maintained in-vivo by passaging weekly intraperitonealy (i.p) from mice to mice. For tumor induction, 14 million cells approximately 150 µl volumes was injected to the animal in a group subcutaneously on the dorsal side of the body (back) and kept under observation for tumor onset.
Tumor size was recorded by vernier calipers and tumor volume was calculated using the formula: V = 0.5×L×W^2, where L is the length (long axis) and W is the width (short axis).
In Group I (control, untreated) only tumor cell line was administered. In group II, YWCS peptide was administered when the tumor volume reached 0.22±0.10 cm^3 on day 10, at a dose of […] intravenously (i.v) per mouse once daily for 20 days from day 11 to day 30. In group III, same concentration of peptide was injected intravenously (i.v) simultaneously after injecting tumor cells subcutaneously on day one. During experimental period mice were under observation till sacrificed.

The test system of another data set is MCF-7. The settings on record: MCF-7, MTT, 72 h.
For the next data set, the system named is MDA-MB-231. The note with it: 72 h; for percentage of cell viability: MDA-MB-231, MTT.
The target of data set [5] is T2, human LOX-12 (human) (UniProt P18054).
T2 sequence: T1 sequence (P18054 1-663)

Data set [6] deals with T2, human LOX-12 (human). This is another data set of the same source.
In data set [7] the target is T2, human LOX-12 (human). Description: enzyme inhibition kinetics (spectrophotometric); 1.0 µM LOX-12 incubated with peptide (25-100 µM) for 30 min; arachidonic acid 20-120 µM, 0.2% Tween-20, 50 mM potassium phosphate pH 7.2; absorbance at 269 nm; competitive Ki from the Michaelis-Menten equation (GraphPad Prism).

Where “and” joins values, the source holds several entries; their conditions need not be identical. Equal entries are not always repeated. Entries after “also recorded” stand apart in the source; their conditions may differ. Where two headings read alike, the source gives them in different places. Where a SMILES comes first, the peptide text is derived from it.

As for `N[C@@H](Cc1ccc(O)cc1)C(=O)N[C@@H](Cc1c[nH]c2ccccc12)C(=O)N[C@@H](CS)C(=O)N[C@@H](CO)C(=O)O` [YWCS] (H-YWCS-OH), the % inhibition (commonly the percentage by which the read-out fell short of the control) at LOX-12 [1] is on record as 86.1%. The Mode of inhibition result on LOX-12 [2] (linearised analysis of Michaelis-Menten data, in presence of substrate arachidonic acid) is “competitive mode of inhibition”. On LOX-12 [2] (peptide 25-100 µM, arachidonic acid 20-120 µM, enzyme 1.0 µM, Michaelis-Menten fit in graphpad prism, read-out: Competitive kinetic constant Ki), the Ki (in general, a dissociation constant, usually derived from enzyme kinetics or from competition with a known ligand) came to 7.25 µM. Besides, the Kd (in general, a measure of binding affinity in units of concentration) on LOX-12 [3] turned out to be 0.0339 µM. In addition, in the data set with human red blood cells, the “Percentage of hemolysis of human erythrocytes” value is 22%. Further, the “mean percentage apoptotic cells” value was 41.2±5.8% in the data set with MCF-7 cells (MCF-7, 50 µM); 49.8% and 49.8±6.5% in the data set with MCF-7 cells (MCF-7, 75 µM); 58.3±7.5% in the data set on MCF-7 cells (MCF-7, 100 µM); 15.0±1.2% in the data set on MDA-MB-231 cells (MDA-MB-231, 350 µM); 20.8% and 20.8±3.2% with MDA-MB-231 cells (MDA-MB-231, 400 µM); 22.1±1.5% with MDA-MB-231 cells (MDA-MB-231, 450 µM). The “Tumor volume, Day 20” value in data set [4] (Group II, 200 µmol i.v. per mouse once daily from day 11 to day 30, control 2.09±0.06) was 1.62±0.49 cm^3; in data set [4] (Group III, 200 µmol peptide i.v. simultaneously after injecting EAT cells s.c. on day one), “No tumor was observed; also recorded: No tumor onset”. Moreover, the “Tumor volume, Day 30” value in data set [4] (Group II, 200 µmol i.v. per mouse once daily from day 11 to day 30, control 4.5±0.24) is on record as 3.04±1.06 cm^3. In data set [4] (Group II, peptide treated for 20 days, control Group I showed the same), the “Size of liver and spleen in sacrificed animals” value is “liver and spleen enlargement”. Also, the percentage cell viability in the data set on MCF-7 (25 µM) was 88.6%; in the data set on MCF-7 (50 µM) it was 85.7%; in the data set on MCF-7 (100 µM), 31.2%; with MCF-7 (150 µM) it was 21.1%. Further, the IC50 – broadly, the concentration that inhibits the measured activity by half – in the data set on MCF-7 (read-out: IC50 (cell viability), triplicate) was found to be 75 µM; in the data set with MDA-MB-231, 400 µM. The “percentage of cell viability” value in the data set on MDA-MB-231 (50 µM) is given as 92%; in the data set with MDA-MB-231 (100 µM), 87.46%; in the data set with MDA-MB-231 (150 µM), 80.36%; in the data set on MDA-MB-231 (200 µM), 72.51%; in the data set on MDA-MB-231 (350 µM), 54.76%; with MDA-MB-231 (400 µM), 48.19%. Further, the “percentage of cell viability” value in the data set with MDA-MB-231 (500 µM) worked out at 43.07%.

As to AIYW, at LOX-12 [1], the “% inhibition” value came to 69.3%.

Regarding FYS (peptide), the % inhibition of LOX-12 enzyme activity (arachidonic acid substrate, absorbance at 269 nm) with human LOX-12 (human) [5] is 79.8%.

FWY (peptide) displayed a % inhibition of LOX-12 enzyme activity (arachidonic acid substrate, absorbance at 269 nm) in the data set with human LOX-12 (human) [5] of 80.4%.

Turning to YWG (peptide), the % inhibition of LOX-12 enzyme activity (arachidonic acid substrate, absorbance at 269 nm) in the data set with human LOX-12 (human) [5] amounted to 71.6%.

Take `O=c1cc(-c2ccccc2)oc2cc(O)c(O)c(O)c12` [Baicalein, reference compound]: the “% inhibition” value at LOX-12 [1] amounted to 85.1%.

WFA (peptide): the % inhibition of LOX-12 enzyme activity (arachidonic acid substrate, absorbance at 269 nm) with human LOX-12 (human) [5] was 73.5%.

Regarding WKS (peptide), the % inhibition of LOX-12 enzyme activity (arachidonic acid substrate, absorbance at 269 nm) with human LOX-12 (human) [5] was 53.2%.

Turning to YW (peptide), the % inhibition of LOX-12 enzyme activity (arachidonic acid substrate, absorbance at 269 nm) in the data set with human LOX-12 (human) [5] is 73.2%.

On to WFC (peptide), for which, in the data set with human LOX-12 (human) [5], the % inhibition of LOX-12 enzyme activity (arachidonic acid substrate, absorbance at 269 nm) was 72.1%.

Turning to FWCS, the “% inhibition” value on LOX-12 [1] was 74.2%.

For the molecule YWCS, the % inhibition of LOX-12 enzyme activity (arachidonic acid substrate, absorbance at 269 nm) in the data set with human LOX-12 (human) [5] was 86.1%; with human LOX-12 (human) [6] it was 80%. Moreover, the Ki with human LOX-12 (human) [7] was 7.25 µM.

For FWCS, in the data set with human LOX-12 (human) [5], the % inhibition of LOX-12 enzyme activity (arachidonic acid substrate, absorbance at 269 nm) turned out to be 74.2%.

In the data set with human LOX-12 (human) [5], AIYW came in with a % inhibition of LOX-12 enzyme activity (arachidonic acid substrate, absorbance at 269 nm) of 69.3%.
